Test results reported in patent US20160212993A1, “ADJUVANT COMPOSITIONS” (SYNGENTA LIMITED, priority 2012, published 2016).

Legend:
Assay type in all cases: in vivo
[1] = tested on: Puccinia recondita f. Sp. Tritici; assay: Puccinia recondita f. sp. tritici / wheat / curative (brown rust on wheat), PUCCTRZ/ff-cu; parameters: key: % disease control relative to untreated check plants; details: 0.20%, average of three replicates
Experimental: (§1) In general, active ingredient is formulated (SC, SL) and just before spraying the formulations are mixed with water and ultrasonically agitated in order to achieve homogeneous distribution. Spray solutions are made up in water. Adjuvants are added as tank mix to the spray solution just before application. Foliar application is at 200 L/ha in an application device spraying with a single nozzle (type Lechler) 60 cm above the plants. Preventative tests are performed as 1 or 2 day preventative applications, i.e. plants are treated with the compounds 1 or 2 days prior to artificial inoculation with fungal spores, whereas for curative tests the inoculation is carried out prior to application. A single evaluation of disease level is made 5 to 48 days after inoculation, depending on the pathosystem. Disease control relative to the untreated check plants is then calculated. In the following examples, all treatments were sprayed at […] spray volume in 10% isopropanol solution to normalise foliar retention: Azoxystrobin;—Quadris SC250, Isopyrazam;—SC250, Cyproconazole: —Alto SL100, Chlorothalonil; Bravo SC720
Puccinia recondita f. Sp. Tritici/Wheat/Curative (Brown Rust on Wheat)->PUCCTRZ/ff-cu-S:
2-week old wheat plants cv. Arina are inoculated by spraying them with a spore suspension two days before application. After an incubation period of 1 day at 20° C. and 95% rh followed by 1 day at 20° C. and 60% rh in a greenhouse, the inoculated test plants are sprayed in a spray chamber with the formulated test compound diluted in water. After additional incubation at 20° C./18° C. (day/night) and 60% rh in a greenhouse, the percentage leaf area covered by disease is assessed when an appropriate level of disease appears on untreated check plants (9-12 days after application).

Alternaria solani = Alternaria solani / tomato / preventative, ALTELYP/ff-pr; details: Table 4, adjuvant alone, 0.20%, average of three replicates
Experimental: as §1
Alternaria solani/Tomato/Preventative (Alternaria on Tomato)->ALTELYP/ff-pr-S:
4-week old tomato plants cv. Roter Gnom are sprayed in a spray chamber with the formulated test compound diluted in water. The test plants are inoculated by spraying them with a spore suspension two days after application. The inoculated test plants are incubated at 22/18° C. (day/night) and 95% rh in a greenhouse and the percentage leaf area covered by disease is assessed when an appropriate level of disease appears on untreated check plants (5-7 days after application).

[2] = tested on: Puccinia recondita f. Sp. Tritici; assay: Puccinia recondita f. sp. tritici / wheat / preventative (brown rust on wheat), PUCCTRZ/ff-pr; parameters: key: % disease control relative to untreated check; details: 0.20%, average of three replicates
Experimental: as §1
Puccinia recondita f. Sp. Tritici/Wheat/Preventative (Brown Rust on Wheat)->PUCCTRZ/ff-pr-S:
2-week old wheat plants cv. Arina are sprayed in a spray chamber with the formulated test compound diluted in water. The test plants are inoculated by spraying them with a spore suspension one day after application. After an incubation period of 1 day at 20° C. and 95% rh, the inoculated test plants are kept at 20° C./18° C. (day/night) and 60% rh in a greenhouse. The percentage leaf area covered by disease is assessed when an appropriate level of disease appears on untreated check plants (12-14 days after application).

[3] = tested on: Mycosphaerella graminicola (Septoria tritici); assay: Mycosphaerella graminicola (Septoria tritici) / wheat / preventative, SEPTTRZ/ff-pr; details: Table 3, adjuvant alone, 0.20%, average of three replicates
Experimental: as §1
Mycosphaerella graminicola (Septoria tritici)/Wheat/Preventative (Septoria tritici Leaf Spot on Wheat)->SEPTTRZ/ff-pr-S:
2-week old wheat plants cv. Riband are sprayed in a spray chamber with the formulated test compound diluted in water. The test plants are inoculated by spraying a spore suspension on them one day after application. After an incubation period of 1 day at 22° C./21° C. (day/night) and 95% rh, the inoculated test plants are kept at 22° C./21° C. (day/night) and 70% rh in a greenhouse. Percentage leaf area covered by disease was assessed and efficacy was calculated compare to untreated controls when an appropriate level of disease appears on untreated check plants (16-19 days after application).

| Compound | PUCCTRZ/ff-cu, visual assessment of control ([1]; Table 1, adjuvant alone) | PUCCTRZ/ff-cu, visual assessment of control ([1]; Table 2, adjuvant alone) | ALTELYP/ff-pr, visual assessment of control (Alternaria solani) | PUCCTRZ/ff-pr, visual assessment of control ([2]; Table 1, adjuvant alone) | PUCCTRZ/ff-pr, visual assessment of control ([2]; Table 2, adjuvant alone) | PUCCTRZ/ff-pr, visual assessment of control ([2]; Table 3, adjuvant alone) | PUCCTRZ/ff-pr, visual assessment of control ([2]; Table 4, adjuvant alone) | SEPTTRZ/ff-pr, visual assessment of control [3] |
| --- | --- | --- | --- | --- | --- | --- | --- | --- |
| CCCCCCCC/C=C\CCCCCCCC(=O)OC [Methyl oleate, reference compound] | 0 | 0 | 0 | 0 | 0 | 0 | 0 | 0 |
| Nopol-5PO-7EO [Nopol-5PO-7EO (Rhodoclean EFC)] | 0 | 0 | 6 | 0 | 0 | 0 | 0 | 0 |
| Nopol-5PO-9EO [Nopol-5PO-9EO (Rhodoclean MSC)] | 0 | 0 | 0 | 0 | 0 | 0 | 0 | 15 |
| Nopol-5PO-25EO [Nopol-5PO-25EO (Rhodoclean 525)] | 0 | 0 | 2 | 0 | 0 | 0 | 0 | 7 |
